Test results from PMC7367283, “A PIP2 substitute mediates voltage sensor-pore coupling in KCNQ activation” (Communications Biology, 2020).
Several values for one entry are separate records, joined by “and”; a condition that tells them apart may be missing. Equal entries are not always repeated.

Legend:
[1] = target: KCNQ1 (Homo sapiens, UniProt P51787); assay: KCNQ1 co-expressed with CiVSP (PIP2 depletion), two-electrode voltage clamp in Xenopus oocytes; assay type: cell-based; conditions: ~10 µM CP1 injected into the oocyte; pulses to +60 mV
From the text: We co-expressed KCNQ1 with the voltage-dependent lipid phosphatase CiVSP[44] in Xenopus oocytes and recorded KCNQ1 currents using two-electrode voltage clamp with consecutive depolarizing voltage pulses. […] To more directly test CP1 effects, we applied CP1 to the intracellular side of the inside-out membrane patch that expressed IKs channels.

[2] = target: KCNQ2/KCNQ3 (Homo sapiens, UniProt O43525+O43526); assay: Two-electrode voltage clamp of KCNQ2+KCNQ3 in Xenopus oocytes; assay type: cell-based; conditions: Q2/Q3, individual oocytes
From the text: KCNQ2 and KCNQ3 form a channel complex that carries M currents in neurons. Similar to KCNQ1, these KCNQ subunits require PIP2 for voltage-dependent activation. KCNQ2 alone can express functional channels in Xenopus oocytes, while KCNQ3 alone cannot. However, a single mutation, A315T, allows KCNQ3 to functionally express in Xenopus oocytes. We examined the effects of CP1 on KCNQ2, KCNQ3 with mutation A315T (denoted as KCNQ3*), KCNQ2+KCNQ3, and KCNQ2+KCNQ3* expressed in Xenopus oocytes (Fig. 5a). Similar to the effects on KCNQ1 and IKs channels, CP1 changed the amplitude of currents (Fig. 5b), shifted the G–V relation to more negative voltages (Fig. 5c), and slowed the deactivation kinetics (Fig. 5d) for all of these KCNQ channels. These CP1 effects were relatively small on KCNQ2 as compared with those on other KCNQ channels, and the effects on KCNQ2/KCNQ3* and KCNQ2/KCNQ3 complexes were closer to those on KCNQ2 alone.
Fig. 5 Subtype selectivity of CP1 on KCNQ channels. a Current traces of KCNQ channels as indicated in the absence and the presence of 10 µM CP1. […]
The whole-oocyte ionic currents were recorded with a GeneClamp 500B amplifier (Axon Instruments, CA) or iTEV90 amplifier (HEKA, Germany) and then sampled at 1 kHz and low-pass-filtered at 2 kHz. […] The Kir1.1 current was recorded with a high K^+ bath solution containing (in mM) 96 KCl, 4 NaCl, 1 CaCl2, 2 MgCl2, and 10 HEPES, pH 7.3–7.4. The HCN4 current was recorded in ND66 solution containing (in mM) 66 NaCl, 32 KCl, 1.8 CaCl2, 1 MgCl2, and 5 HEPES, pH 7.6. All the other potassium channels were recorded in ND96 solution. The currents of CaV1.2 channel were recorded in 40 mM Ba^2+ bath solution containing (in mM) 40 Ba(OH)2, 50 TEA-OH, 2 KOH, and 5 HEPES, adjusted to pH 7.4 with methanesulfonic acid. […] The HCN4 currents were recorded by a test pulse between −30 and −140 mV in 10-mV step from a holding potential of −30 mV. […]

O=S(=O)([O-])Oc1c(-c2sc3c(ccc4cccc(Cl)c43)c2OS(=O)(=O)[O-])[nH]c2ccc(Br)cc12.[Na+].[Na+] [CP1, DISODIUM 5-BROMO-2-[9-CHLORO-3-(SULFONATOOXY) NAPHTHO [1,2-B] THIEN-2-YL]-1H-INDOL-3-YL SULFATE]
KCNQ1 currents after PIP2 depletion [1]: currents increased with consecutive voltage pulses
outward current (Icp1/Ictrl) ([2]; 10 µM CP1, at −10 mV): 1.7551 and 1.3309 and 1.0976 and 1.4059
∆V1/2 ([2]; 10 µM CP1): 15.349 mV and 10.5931 mV and 18.0231 mV and 10.5937 mV
τ deact at -120 mV ([2]; 10 µM CP1 treated): 0.1194 s and 0.1528 s and 0.295 s and 0.1626 s
